Patent publication US20240166652A1, “MODULATORS OF THE INTEGRATED STRESS PATHWAY” (Calico Life Sciences LLC, priority 2017, published 2024)

System: ATF4 luciferase reporter in HEK293T cells
Assay: ATF4-Luc assay (ATF4 luciferase reporter, tunicamycin-treated HEK293T cells)
Format: cell-based, human
Conditions: Homo sapiens, HEK-293T; HEK293T cells carrying the ATF4 luciferase reporter, 1 μg/mL tunicamycin, 7 hours

Row | SMILES | EC50
1 | O=C(COc1ccc(Cl)c(F)c1)NC12CC(NC(=O)COc3c(F)cc(F)cc3F)(C1)C2 [Compound 406, 2-(4-chloro-3-fluorophenoxy)-N-{3-[2-(2,4,6-trifluorophenoxy)acetamido]bicyclo[1.1.1]pentan-1-yl}acetamide] | 10 to 50 nM
2 | O=C(COc1ccc(Cl)c(F)c1)NC12CC(NC(=O)COc3cnn(CC(F)(F)F)c(=O)c3)(C1)C2 [Compound 310, 2-(4-chloro-3-fluorophenoxy)-N-[3-(2-{[6-oxo-1-(2,2,2-trifluoroethyl)-1,6-dihydropyridazin-4-yl]oxy}acetamido)bicyclo[1.1.1]pentan-1-yl]acetamide] | 50 to 250 nM
3 | O=C(COc1ccc2c(c1)OC(F)(F)O2)NC12CCC(NC(=O)COc3ccc(F)cc3)(CC1)[C@@H](O)C2 [Compound 798, 2-[(2,2-difluoro-2H-1,3-benzodioxol-5-yl)oxy]-N-{(3S)-4-[2-(4-fluorophenoxy)acetamido]-3-hydroxybicyclo[2.2.2]octan-1-yl}acetamide] | < 10 nM
4 | O=C(COc1ccc(Cl)c(F)c1)NC12CC(NC(=O)COc3cc(F)c4cn[nH]c4c3)(C1)C2 [Compound 111, 2-(4-chloro-3-fluorophenoxy)-N-(3-{2-[(4-fluoro-1H-indazol-6-yl)oxy]acetamido}-bicyclo[1.1.1]pentan-1-yl)acetamide] | < 10 nM
5 | CN(CC(=O)NC12CCC(NC(=O)COc3ccc(Cl)c(Cl)c3)(C1)C2)c1ccc(Cl)cc1 [Compound 202, N^2-(4-chlorophenyl)-N-{4-[2-(3,4-dichlorophenoxy)acetamido]-bicyclo[2.1.1]hexan-1-yl}-N^2-methylglycinamide] | > 2000 nM
6 | N#Cc1ccc(COCC(=O)NC23CC(NC(=O)COc4ccc(Cl)c(F)c4)(C2)C3)cc1 [Compound 139, 2-(4-chloro-3-fluorophenoxy)-N-(3-{2-[(4-cyanophenyl)methoxy]acetamido}-bicyclo[1.1.1]pentan-1-yl)acetamide] | 250 to 500 nM
7 | Cc1cc(F)ncc1OCC(=O)NC12CC(NC(=O)COc3ccc(Cl)c(F)c3)(C1)C2 [Compound 247, 2-(4-chloro-3-fluorophenoxy)-N-(3-{2-[(6-fluoro-4-methylpyridin-3-yl)oxy]acetamido}bicyclo[1.1.1]pentan-1-yl)acetamide] | 50 to 250 nM
8 | O=C(COc1ccc(Cl)cc1)NC12CC(NC(=O)COc3cccc(F)c3)(C1)C2 [Compound 119, 2-(4-chlorophenoxy)-N-{3-[2-(3-fluorophenoxy)acetamido]-bicyclo[1.1.1]pentan-1-yl}acetamide] | 50 to 250 nM
9 | Cc1ccc(OCC(=O)NC23CCC(NC(=O)COc4ccc(OC(F)(F)F)c(F)c4)(CC2)[C@@H](O)C3)cc1F [Compound 733, 2-(3-fluoro-4-methylphenoxy)-N-[(3S)-4-{2-[3-fluoro-4-(trifluoromethoxy)phenoxy]acetamido}-3-hydroxybicyclo[2.2.2]octan-1-yl]acetamide] | < 10 nM
10 | O=C(COc1ccc(Cl)c(F)c1)NC12CC(NC(=O)CN(CCO)c3ccc(Cl)cc3)(C1)C2 [Compound 609, 2-(4-chloro-3-fluorophenoxy)-N-(3-{2-[(4-chlorophenyl)(2-hydroxyethyl)amino]acetamido}bicyclo[1.1.1]pentan-1-yl)acetamide] | > 2000 nM
11 | O=C(O)CN(CCOc1ccc(Cl)c(F)c1)C12CC(NC(=O)COc3ccc(Cl)c(F)c3)(C1)C2 [Compound 686, ({3-[2-(4-chloro-3-fluorophenoxy)acetamido]bicyclo[1.1.1]pentan-1-yl}[2-(4-chloro-3-fluorophenoxy)ethyl]amino)acetic Acid] | 500 to 2000 nM
12 | N#Cc1ccc(OCC(=O)NC23CC(NC(=O)COc4ccc(Cl)c(F)c4)(C2)C3)nc1 [Compound 215, 2-(4-chloro-3-fluorophenoxy)-N-(3-{2-[(5-cyanopyridin-2-yl)oxy]acetamido}bicyclo[1.1.1]pentan-1-yl)acetamide] | 50 to 250 nM
13 | O=C(COc1ccc(Cl)c(F)c1)NC12CCC(NC(=O)COc3ccc(C(F)(F)F)nc3)(CC1)C(O)C2 (racemic) [Compound 301, 2-(4-chloro-3-fluorophenoxy)-N-[3-hydroxy-4-(2-{[6-(trifluoromethyl)pyridin-3-yl]oxy}acetamido)bicyclo[2.2.2]octan-1-yl]acetamide] | < 10 nM
14 | O=C(COc1ccc(F)c(F)c1)NC12CCC(NC(=O)COc3ccc(OC(F)F)c(F)c3)(CC1)[C@@H](O)C2 [Compound 803, 2-[4-(difluoromethoxy)-3-fluorophenoxy]-N-{(2S)-4-[2-(3,4-difluorophenoxy)acetamido]-2-hydroxybicyclo[2.2.2]octan-1-yl}acetamide] | < 10 nM
15 | O=C(COc1ccc(Cl)c(Cl)c1)NC12CCCC(NC(=O)OCc3ccccc3)(C1)C2 [Compound 194, benzyl {5-[2-(3,4-dichlorophenoxy)acetamido]bicyclo[3.1.1]heptan-1-yl}carbamate] | > 2000 nM
16 | O=C(COc1ccc(Cl)c(F)c1)NC12CCC(NC(=O)COc3ncn(-c4ccc(Cl)cc4)n3)(CC1)[C@@H](O)C2 [Compound 516, 2-(4-chloro-3-fluorophenoxy)-N-[(3S)-4-(2-{[1-(4-chlorophenyl)-1H-1,2,4-triazol-3-yl]oxy}acetamido)-3-hydroxybicyclo[2.2.2]octan-1-yl]acetamide] | > 2000 nM
17 | Cc1cccc(CS(=O)(=O)NC23CC(NC(=O)COc4ccc(Cl)c(F)c4)(C2)C3)c1 [Compound 486, 2-(4-chloro-3-fluorophenoxy)-N-(3-{[(3-methylphenyl)methanesulfonyl]amino}bicyclo[1.1.1]pentan-1-yl)acetamide] | > 2000 nM
18 | COc1cc(OCC(=O)NC23CCC(NC(=O)COc4ccc(Cl)c(F)c4)(CC2)C[C@@H]3O)ccc1F [Compound 771, 2-(4-chloro-3-fluorophenoxy)-N-{(3S)-4-[2-(4-fluoro-3-methoxyphenoxy)acetamido]-3-hydroxybicyclo[2.2.2]octan-1-yl}acetamide] | < 10 nM
19 | O=C(COc1ccc(F)c(F)c1)NC12CCC(NC(=O)COc3ccc(F)c(F)c3)(CC1)C(O)C2 (stereo not shown) [Compound 363, N,N′-(2-hydroxybicyclo[2.2.2]octane-1,4-diyl)bis[2-(3,4-difluorophenoxy)acetamide]] | < 10 nM
20 | O=C(COc1ccc(Cl)c(F)c1)NC12CCC(NC(=O)COc3ccc(Cl)c(F)c3)(CC1)[C@@H](O)[C@H]2Br (racemic) [Compound 571, rac-N,N′-[(2S,3R)-2-bromo-3-hydroxybicyclo[2.2.2]octane-1,4-diyl]bis[2-(4-chloro-3-fluorophenoxy)acetamide]] | 10 to 50 nM
21 | O=C(COc1ccc(Cl)c(F)c1)NC12CCC(NC(=O)COc3ccc(Cl)c(F)c3)(CC1)C(NC1(CO)COC1)C2 (stereo not shown) [Compound 701, N,N′-(2-{[3-(hydroxymethyl)oxetan-3-yl]amino}bicyclo[2.2.2]octane-1,4-diyl)bis[2-(4-chloro-3-fluorophenoxy)acetamide]] | 10 to 50 nM
22 | Cc1ccnc(OCC(=O)NC23CCC(NC(=O)COc4ccc(Cl)c(F)c4)(CC2)C[C@@H]3O)n1 [Compound 753, 2-(4-chloro-3-fluorophenoxy)-N-[(3S)-3-hydroxy-4-{2-[(4-methylpyrimidin-2-yl)oxy]acetamido}bicyclo[2.2.2]octan-1-yl]acetamide] | 250 to 500 nM
